Literature values, collected in patent US20150024042A1 (POZEN INC., priority 2011, published 2015).

What was measured:
[1] = in vivo
[2] = 95% CI 0.84 to 0.98
[3] = repeated oral doses of 75 mg clopidogrel (base)

time of peak plasma levels of the main circulating metabolite after dosing [3]: approximately one
Structure (SMILES): COC(=O)[C@H](c1ccccc1Cl)N1CCc2sccc2C1 [clopidogrel]
gastrointestinal hemorrhage, incidence [1]: 2.0 % annually
cardiovascular events compared with aspirin, OR [2]: 0.91
